Each block holds one compound with its values, some of them ahead of it.
Key:
[1] = target: T1, Solute carrier family 22 member 1 (Homo sapiens, UniProt O15245); experiment: Inhibition of OCT1-mediated [14C]tetraethylammonium uptake in human OCT1 expressing HEK293/PDZK1 cells by scintillation counting; format: ADME, cell-based; details: human, hek293/pdzk1
T1 sequence (O15245 whole entry): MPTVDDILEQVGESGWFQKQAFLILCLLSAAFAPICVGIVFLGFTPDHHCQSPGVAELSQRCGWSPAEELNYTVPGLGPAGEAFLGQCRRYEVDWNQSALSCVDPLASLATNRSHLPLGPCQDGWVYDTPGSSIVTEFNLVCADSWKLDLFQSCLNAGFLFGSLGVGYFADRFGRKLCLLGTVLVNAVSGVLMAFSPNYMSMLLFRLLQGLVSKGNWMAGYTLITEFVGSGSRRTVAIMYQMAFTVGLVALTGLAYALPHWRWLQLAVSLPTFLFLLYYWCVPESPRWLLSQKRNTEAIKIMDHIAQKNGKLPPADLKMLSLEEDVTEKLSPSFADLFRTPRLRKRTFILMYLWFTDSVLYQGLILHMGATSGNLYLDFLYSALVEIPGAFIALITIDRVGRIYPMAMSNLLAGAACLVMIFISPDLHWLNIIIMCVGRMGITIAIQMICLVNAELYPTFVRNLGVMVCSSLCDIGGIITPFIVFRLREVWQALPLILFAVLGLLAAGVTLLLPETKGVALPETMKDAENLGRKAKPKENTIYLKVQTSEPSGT

Liver = experiment: Tissue uptake clearance in mouse liver at […] mg/kg, iv in presence of 30 umol/kg TPeA; format: ADME, organism-based; details: in vivo
Kidney = experiment: Tissue uptake clearance in mouse kidney at […] mg/kg, iv in presence of 30 umol/kg TPeA; format: ADME, organism-based; details: in vivo
[2] = target: T2, Solute carrier organic anion transporter family member 1B1 (Homo sapiens, UniProt Q9Y6L6); experiment: Inhibition of OATP1B1-mediated [3H]estrone-3-sulfate uptake in human OATP1B1 expressing HEK293/PDZK1 cells by scintillation counting; format: ADME, cell-based; details: human, hek293/pdzk1
T2 sequence (Q9Y6L6 whole entry): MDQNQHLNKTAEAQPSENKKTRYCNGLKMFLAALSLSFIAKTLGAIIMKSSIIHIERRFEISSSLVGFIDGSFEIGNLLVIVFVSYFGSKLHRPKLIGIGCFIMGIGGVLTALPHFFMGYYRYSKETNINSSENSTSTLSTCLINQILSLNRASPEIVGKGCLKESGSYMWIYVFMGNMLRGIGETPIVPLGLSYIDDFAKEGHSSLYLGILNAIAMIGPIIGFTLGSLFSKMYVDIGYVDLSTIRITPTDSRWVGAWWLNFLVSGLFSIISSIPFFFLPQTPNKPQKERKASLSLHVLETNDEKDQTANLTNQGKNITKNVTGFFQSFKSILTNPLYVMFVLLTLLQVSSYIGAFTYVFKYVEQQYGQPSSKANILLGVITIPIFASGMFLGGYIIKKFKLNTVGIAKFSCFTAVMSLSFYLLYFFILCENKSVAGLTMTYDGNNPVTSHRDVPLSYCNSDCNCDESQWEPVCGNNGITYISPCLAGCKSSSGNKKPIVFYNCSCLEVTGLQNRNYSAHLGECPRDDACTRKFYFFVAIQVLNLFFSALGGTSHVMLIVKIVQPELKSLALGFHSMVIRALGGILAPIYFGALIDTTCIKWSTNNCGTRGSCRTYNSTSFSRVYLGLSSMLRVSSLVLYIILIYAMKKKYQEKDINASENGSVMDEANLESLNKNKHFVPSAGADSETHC

[3] = target: T3, Solute carrier organic anion transporter family member 2B1 (Homo sapiens, UniProt O94956); experiment: Inhibition of OATP2B1-mediated [3H]estrone-3-sulfate uptake in human OATP2B1 expressing HEK293/PDZK1 cells by scintillation counting; format: ADME, cell-based; details: human, hek293/pdzk1
T3 sequence (O94956 whole entry): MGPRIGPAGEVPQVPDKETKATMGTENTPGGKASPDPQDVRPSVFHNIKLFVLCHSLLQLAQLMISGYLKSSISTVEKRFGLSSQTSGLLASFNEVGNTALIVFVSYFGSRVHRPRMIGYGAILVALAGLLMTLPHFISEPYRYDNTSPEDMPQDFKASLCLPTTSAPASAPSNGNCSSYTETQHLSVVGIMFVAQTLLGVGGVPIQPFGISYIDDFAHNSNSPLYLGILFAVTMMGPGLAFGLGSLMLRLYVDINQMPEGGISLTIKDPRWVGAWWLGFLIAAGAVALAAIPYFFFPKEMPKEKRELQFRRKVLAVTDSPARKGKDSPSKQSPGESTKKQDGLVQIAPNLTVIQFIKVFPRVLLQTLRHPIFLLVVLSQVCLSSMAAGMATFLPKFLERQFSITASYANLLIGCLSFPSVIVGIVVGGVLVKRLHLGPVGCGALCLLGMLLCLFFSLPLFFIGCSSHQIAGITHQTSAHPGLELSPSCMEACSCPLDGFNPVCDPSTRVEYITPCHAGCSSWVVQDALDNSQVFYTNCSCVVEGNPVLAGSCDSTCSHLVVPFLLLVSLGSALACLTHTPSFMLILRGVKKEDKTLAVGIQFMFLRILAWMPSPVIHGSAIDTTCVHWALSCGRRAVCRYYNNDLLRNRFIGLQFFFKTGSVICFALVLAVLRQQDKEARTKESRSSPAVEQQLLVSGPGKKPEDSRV

[4] = target: T4, Solute carrier organic anion transporter family member 1B3 (Homo sapiens, UniProt Q9NPD5); experiment: Inhibition of OATP1B3-mediated [3H]estradiol 17beta-glucuronide uptake in human OATP1B3 expressing HEK293/PDZK1 cells by scintillation counting; format: ADME, cell-based; details: human, hek293/pdzk1
T4 sequence (Q9NPD5 whole entry): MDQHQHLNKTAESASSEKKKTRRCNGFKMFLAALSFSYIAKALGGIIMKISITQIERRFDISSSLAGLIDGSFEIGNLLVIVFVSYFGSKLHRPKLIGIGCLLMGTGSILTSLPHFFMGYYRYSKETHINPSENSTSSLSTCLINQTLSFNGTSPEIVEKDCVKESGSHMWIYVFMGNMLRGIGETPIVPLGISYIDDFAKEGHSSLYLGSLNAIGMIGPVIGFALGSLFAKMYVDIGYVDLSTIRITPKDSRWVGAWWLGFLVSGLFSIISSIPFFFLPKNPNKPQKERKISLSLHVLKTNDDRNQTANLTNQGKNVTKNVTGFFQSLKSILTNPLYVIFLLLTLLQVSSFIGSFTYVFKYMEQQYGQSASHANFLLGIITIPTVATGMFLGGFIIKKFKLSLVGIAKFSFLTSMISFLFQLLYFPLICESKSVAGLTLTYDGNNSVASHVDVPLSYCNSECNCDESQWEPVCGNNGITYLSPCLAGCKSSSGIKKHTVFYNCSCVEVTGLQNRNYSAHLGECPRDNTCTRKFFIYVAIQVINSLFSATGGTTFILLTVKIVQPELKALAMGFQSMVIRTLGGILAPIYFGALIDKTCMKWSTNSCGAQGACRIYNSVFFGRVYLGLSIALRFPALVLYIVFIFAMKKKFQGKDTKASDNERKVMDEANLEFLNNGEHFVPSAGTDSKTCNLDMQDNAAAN

inhibition (INH) [1]: Active
Compound: CC[N+](CC)(CC)CC [TETRYLAMMONIUM]

Drug uptake (Liver): Not Active
Drug uptake (Kidney): Not Active
Compound: CN(C)C(=N)N=C(N)N [METFORMIN]

Compound: O=C1OC(c2ccc(O)c(S(=O)(=O)O)c2)(c2ccc(O)c(S(=O)(=O)O)c2)c2c(Br)c(Br)c(Br)c(Br)c21 [SULFOBROMOPHTHALEIN]
inhibition (INH) [2]: Active
inhibition (INH) [3]: Active
inhibition (INH) [4]: Active
